What was measured:
Snail transgenic mice = experiment: Scleroderma model in Snail transgenic mice; assay type: in vivo, mouse
Procedure: UAS03 attenuates Scleroderma associated vascular permeability in Snail transgenic mice. Calorimetric quantification of Evan's blue dye extracted from back skin using UV spectrophotometer. […] Animals treated with UAS03 show more than 3-fold reduction in the dye leakage (FIG. 24).
Expression for fibrosis associated genes in the back skin of the Snail transgenic mice. The mRNA levels of the Collagen 1 were measured in back skin using RT-qPCR. […] The expression in UAS03 treated group, in both males and females, were reduced. The levels were separately assessed in males and females in vehicle and drug treated animals (FIG. 25).

[1] = Stability at gastric pH and with digestive enzymes; assay type: in vitro ADME; conditions: pH 2.0; enzymes 100 U/ml, 12 h, 37° C.; 0.2 mg/ml
Procedure: FIG. 1: UAS03 is a potent anti-inflammatory structural analogue of UroA and induces tight junction proteins. (A) Chemical structures of UroA, UAS03. UroA/UAS03 stability was examined in the presence of gastric pH 2.0 and digestive enzymes. UroA and UAS03 (0.2 mg/ml) were incubated with digestive enzymes (esterases and proteases, 100 U/ml) for 12 h at 37° C. and compound levels were quantified. (B) BMDMs were stimulated with LPS (50 ng/ml) without or with UroA (blue line)/UAS03 (purple line) (0.1, 1, 10, 25 and 50 μM) for 6 hours. IL-6 and TNF-α levels in supernatants were measured. (C) C57BL/6 mice (n=3-4) were pretreated with UroA (20 mg/kg) and UAS03 (20 mg/kg). After 4 hours, LPS (2 mg/kg) was injected intraperitoneally. Post 4 h of LPS administration, serum levels of IL-6 and TNF-α was measured. […] (G) The fold changes in mRNA levels of claudin 4 (Cldn4), occludin (Ocln) and Zona occludens 1 (ZO1) in HT29 cells were determined by RT PCR method. (H) UroA/UAS03 induced protein expression of Cldn4, Ocln and ZO1 in HT29 cells were determined by immunoblots and quantified by Image J software. […] The green intensity (n=15-20 cell membrane regions) was measured. […] The protein lysates were prepared from colon scrapes and subjected to immunoblots and detected the expression of the (J) Nrf2, HO1, Cldn4 and (K) AhR using appropriate antibodies as described in methods. […]

SMILES: Oc1ccc2c(c1)COc1cc(O)ccc1-2 [UAS03, 6H-benzo[c]chromene-3,8-diol]
- reduction in Evan's blue dye leakage in back skin (Snail transgenic mice; Snail transgenic mice): more than 3 fold
- Collagen 1 mRNA expression in back skin (Snail transgenic mice; males and females, RT-qPCR): reduced
- stability at gastric pH and in the presence of gastric enzymes (esterases and proteases) [1]: stable

Reference: patent US12377069B2, “Compounds, compositions, methods of using, and methods for preparing compounds” (UNIVERSITY OF LOUISVILLE RESEARCH FOUNDATION, INC., priority 2018, dated 2025)
